Bounds are passed on as bounds.

For data set [1], the system named is blood sugar. Briefly: Blood sugar drop ratio in streptozotocin diabetic rats. It counts as in vivo, Wistar type male rats. Particulars: oral, four days, blood 3 hours after administration. Here is the method: (§1) Groups each of five three-week old Wistar type male rats were used for the test. To the rats, streptozotocin was administered at a concentration of 65 mg/kg via the tail vein. Of these rats, those whose blood sugar values fell in the range of from 250 to 650 mg/dl one week after the administration were designated as diabetic rats. As a control medicine, Compound 4 represented by the formula VII was used. [drawing 9]
(§2) The five groups, i.e. the group of untreated diabetic rats, the group of rats subjected to administration of control medicine (50 mg/kg×2/day), the group of rats subjected to administration of sample (100 mg/kg/day), and the group of normal rats, were tested. A given medicine was suspended in 5% gum arabic and orally administered continually for four days after the elapse of two weeks following the onset of diabetes. To the group of untreated diabetic rats and the group of normal rats, a 5% gum arabic solution […] was administered in a ratio of 10 ml/kg. After the elapse of three hours following the administration, the blood was extracted from each rat with the aid of heparin via the tail vein (for the determination of blood sugar) and the abdominal aorta.
The PRC was tested for sorbitol content by the Malon et al's method [Diabetes, 29, 861-864 (1980)]. The determination of the blood sugar value was carried out by the alucose-oxidase method.
The blood sugar drop ratio and the sorbitol accumulation inhibition ratio were calculated in accordance with Formula 1 and Formula 2.
Blood sugar drop ratio (%)=(1-[(Average blood sugar value of the group of rats subjected to administration of sample or control medicine-Average blood sugar value of the group of normal rats)/(Average blood sugar value of the group of untreated diabetic rats-Average blood sugar value of the group of normal rats)])×100

A short description of data set [2]: in vivo. Particulars: mouse, oral, ICR type male mice (five-week old). Here is the method: The compounds 1, 2 and 3 of this invention were tested for acute toxicity by oral administration thereof to ICR type male mice (five-week old).
Data set [3] concerns the target T1, aldose reductase (Rattus norvegicus, UniProt P07943).
T1 construct: From the crystalline lens, aldose reductase was prepared; from tissue; host or cells: crystalline lens of five-week old male Wistar rat
The data set can be described thus: Determination of Aldose Reductase-inhibiting Activity. It counts as biochemical, Wistar type male rat (crystalline lens). Particulars: rat lens enzyme; 0.1 mM DL-glyceraldehyde, 0.03 mM NADPH, pH 7.0, 30° C., 30 minutes; read-out: 50% inhibition concentration (IC50). As for the experimental part:
A five-week old Wistar type male rat was sacrificed under anesthesia and immediately dissected to remove crystalline lens. From the crystalline lens, aldose reductase was prepared by following the Hyman et al's method [J. Biol. Chem., 240, 877-882 (1965)] with necessary modifications. The aldose reductase activity was determined by the Dufrane et al's method [Biochem. Med., 32, 99-105 (1984)]. In 400 μl of a 135 mM sodium-potassium phosphate buffer solution (pH 7.0) prepared in advance so as to contain 100 mM lithium sulfate, 0.03 mM NADPH (reducing type nicotinamide adenine dinucleotide phosphate), and 0.1 mM DL-glyceraldehyde as a substrate, 50 μl of the aforementioned aldose reductase and 50 μl of a sample of a varying concentration (having Compound 1, or Compound 2, or Compound 3 dissolved in ethanol) added thereto were left reacting at 30° C. for 30 minutes. Then, the reaction was stopped by addition of 0.15 ml of 0.5N hydrochloric acid. The NADP (oxide type nicotinamide adenine dinucleotide phosphate) produced by the reaction in the reaction mixture was converted into a fluorescent substance by the addition thereto of 0.5 ml of 6N sodium hydroxide containing 10 mM imidazole. After the elapse of 60 minutes following the conversion, the produced reaction mixture was tested for intensity of fluorescence. The intensity of fluorescence was determined by the use of a fluorescence tester (produced by Corona Denki K.K. and marketed under trademark designation of "MTP-100F Corona Microplate Reader") under the conditions of 360 nm of excitation wavelength and 460 nm of fluorescent wavelength. The intensity of fluorescence determined by repeating the procedure described above, except ethanol was added in the place of the sample was used as a control value. As the aldose reductase inhibiting activity of a sample, the concentration of the sample required for inhibiting 50% of the aldose reductase activity due to a decline of the intensity of fluorescence (i.e. 50% inhibition concentration: IC50 value) was obtained.

In data set [4] the test system is Sorbitol in Red Blood Cells. The data set can be described thus: Action to Curb Accumulation of Sorbitol in Red Blood Cells (streptozotocin diabetic rats). It counts as in vivo, Wistar type male rats. As to conditions: control medicine 50 mg/kg×2/day, oral, four days; packed red cells, blood 3 hours after administration. As for the experimental part:
as §1
as §2, with “aorta. […]” for “aorta.”
The blood sugar drop ratio and the sorbitol accumulation inhibition ratio were calculated in accordance with Formula 1 and Formula 2. […]

By LD50 is commonly meant the dose expected to kill half of the subjects tested. Consider `COc1cc(C=CC(=O)c2ccc(CC3SC(=O)NC3=O)cc2)ccc1O` (centres unmarked) [Compound 2, 5-{4-[3-(4-hydroxy-3-methoxyphenyl)-2-propenoyl]benzyl}thiazolidine-2,4-dione], for which the “Blood sugar drop ratio” value in data set [1] (sample 100 mg/kg/day) was 60.5%. The LD50 in data set [2] was at least 1000 mg/kg. In addition, the IC50 in data set [3] turned out to be 4.2 µM.

Take `CC(=Cc1ccccc1)C=C1SC(=S)N(CC(=O)O)C1=O` [Compound 4, reference compound]: in data set [1] (control medicine 50 mg/kg×2/day), the “Blood sugar drop ratio” value was 7.2%. The “Sorbitol accumulation inhibition ratio” value in data set [4] is on record as 90.3%.

For the compound `O=C1NC(=O)C(Cc2ccc(C(=O)C=Cc3ccc(O)c(O)c3)cc2)S1` (centres unmarked) [Compound 1, 5-{4-[3-(3,4-dihydroxyphenyl)-2-propenoyl]benzyl}thiazolidine-2,4-dione], in data set [1] (sample 100 mg/kg/day), the “Blood sugar drop ratio” value came out at 46.8%. Also, the LD50 in data set [2] was at least 1000 mg/kg. Further, in data set [3], the IC50 worked out at 0.52 µM.

With `COc1cc(C=CC(=O)c2cccc(CC3SC(=O)NC3=O)c2)ccc1O` (centres unmarked) [Compound 3, 5-{3-[3-(4-hydroxy-3-methoxyphenyl)-2-propenoyl]benzyl}thiazolidine-2,4-dione], the “Blood sugar drop ratio” value in data set [1] (sample 100 mg/kg/day) was 42.6%. Moreover, the LD50 in data set [2] was at least 1000 mg/kg. Besides, the IC50 in data set [3] is 1.9 µM.

The values above are taken from patent US5225426A, “Thiazolidine-2,4-dione compound and method of treatment of diabetic complications” (Terumo Kabushiki Kaisha, priority 1990, dated 1993).
